Assays:
[1] = system: Collagen translation; experiment: Tissue selectivity of collagen translation modulator (FIG. 3); type: cell-based
Description: Primary human pulmonary fibroblasts (HPF, PromoCell C-12360) were maintained in fibroblast growth medium 2 (PromoCell C-23020) according to manufacture instruction. Collagen synthesis was inducted using the same cocktail as for the WI-38 cells.
Primary human dermal fibroblasts (HDF) (PromoCell C-12302) were maintained in PromoCell's proprietary Fibroblast Growth Medium 2 (ready-to-use, Cat. C-23020). For collagen synthesis induction, cells were seeded on experimental plates for 24 hours followed by addition of collagen induction cocktail. Tested compounds were added together with induction.

[2] = system: collagen 1 (COL1); experiment: WI-38 collagen 1 inhibition assay; type: cell-based, human; details: Cellular EC50, WI-38 cells; values are classes of LogEC50
How it was run: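 WI-38 fibroblasts serum-starved (0.25% FBS 2 h, then none 24 h), then given a collagen induction cocktail together with compound. Cells fixed, immunostained for collagen I with DAPI counterstain, and imaged at 20×; per-cell fluorescence quantified by image analysis.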

[3] = system: Collagen type-I; experiment: Collagen type-I immunofluorescence and Col-I mRNA FISH in WI-38 Human Lung Fibroblasts (FIG. 4); type: cell-based; details: 96 hours incubation (immunofluorescence), 24 hours incubation (FISH of Col-I mRNA)
Description: FIG. 4A: WI-38 Human Lung Fibroblasts, 96 hours incubation with compounds. White: Collagen type-I; Gray: DAPI. Immunofluorescence. FIG. 4B: WI-38 Human Lung Fibroblasts, 24 hours incubation with compounds. FISH analysis. White: Col-I mRNA; Gray: DAPI.
Cells in 96-well or 384-well plates were fixed for 20 min in 4% paraformaldehyde (PFA, ENCO, Cat. sc-281692). Following two washes with 1×PBS, cells were treated with hydrogen peroxide (Acros, Cat: 7722-84-1) for 10 minutes and then washed twice with 1×PBS. Cells were then incubated over-night at 4° C. with Anti-Collagen I (Sigma-Aldrich, Cat: C 2456) antibody and washed three times with 1×PBS. […]
Cell images were taken with Operetta (Perkin Elmer, USA), a wide-field fluorescence microscope at 20× magnification. […] In Columbus, cells were identified by their nucleus, using the “Find Nuceli” module and cytoplasm was detected based on the secondary antibody channel. […]
Following RNA FISH experiments, images of cells were taken with Operetta (Perkin Elmer, USA), a wide-field fluorescence microscope at 20× magnification. […] In Columbus, cells were identified by their nucleus, using the “Find Nuceli” module, cytoplasm was detected based on the FISH-channel, and single mRNAs in the cytoplasm and transcription sites in the nucleus were detected using “Find Spots” module. […]

O=C(Nc1nc(-c2ccccc2Cl)cs1)c1ccc(N2CCOCC2)cc1 [compound 327, N-[4-(2-chlorophenyl)thiazol-2-yl]-4-morpholino-benzamide]
tissue selectivity [1]: tissue selective | COL1 Efficacy (LogEC50) [2]: +++ (+++: <−6) | level of action on collagen synthesis [3]: act at the level of translation

— patent US20230212131A1, “COLLAGEN 1 TRANSLATION INHIBITORS AND METHODS OF USE THEREOF” (Anima Biotech Inc., priority 2020, published 2023)
